Assay [1] concerns the target T1, 5-HT1D receptor (Homo sapiens, UniProt P28221).
T1 construct: expressed in transfected cells
The experiment in a line: Binding affinity, inhibition of 3H-serotonin binding to membranes of cells expressing the 5-HT1D receptor. Conditions: for inhibition at 0.1 µM: 100 nM of test compound, 3H-serotonin 1 nM, 60 minute incubation at 22° C., read-out: affinity for the 5-HT1D receptor: amount (in percent) of binding of the radioligand that is inhibited; for binding at the 5-HT1D receptor (in words): at a concentration of 100 nM. How it is done:
(§1) Selected compounds of the previous examples, as well as reference compounds were evaluated for binding affinity using cell types receptive specifically to 5-HT1D and 5-HT1B ligands. The assay protocol generally entailed the incubation of membranes prepared f cells expressing the 5-HT1D or 5-HT1B subtype of 5-HT receptors with ^3 H serotonin (1 nM for 5-HT1 D and 2.5 nM for 5-HT1B). Specific concentrations of the test compound were incubated with the radioligand and the membrane homogenates prepared from the recombinant cells. After a 60 minute incubation at 22° C., the incubation was terminated by vacuum filtration. The filters were washed with buffer and counted for radioactivity using liquid scintillation spectroscopy. The affinity of the test compound for the 5-HT1D receptor is expressed as the amount (in percent) of binding of the radioligand that is inhibited in the presence of 100 nM of test compound. A greater percent inhibition indicates greater affinity for the 5-HT1D receptor.

The target of assay [2] is T2, 5-HT1B receptor (Homo sapiens, UniProt P28222).
T2 construct: expressed in transfected cells
The experiment in a line: Binding affinity, inhibition of 3H-serotonin binding to membranes of cells expressing the 5-HT1B receptor. Conditions: for binding at the 5-HT1B receptor (in words): at a concentration of 100 nM; for inhibition at 0.1 µM: 100 nM of test compound, 3H-serotonin 2.5 nM, 60 minute incubation at 22° C., read-out: affinity for the 5-HT1B receptor (percent inhibition of radioligand binding). How it is done: as §1

Molecules are shown by their SMILES.

T2 sequence (P28222 whole entry): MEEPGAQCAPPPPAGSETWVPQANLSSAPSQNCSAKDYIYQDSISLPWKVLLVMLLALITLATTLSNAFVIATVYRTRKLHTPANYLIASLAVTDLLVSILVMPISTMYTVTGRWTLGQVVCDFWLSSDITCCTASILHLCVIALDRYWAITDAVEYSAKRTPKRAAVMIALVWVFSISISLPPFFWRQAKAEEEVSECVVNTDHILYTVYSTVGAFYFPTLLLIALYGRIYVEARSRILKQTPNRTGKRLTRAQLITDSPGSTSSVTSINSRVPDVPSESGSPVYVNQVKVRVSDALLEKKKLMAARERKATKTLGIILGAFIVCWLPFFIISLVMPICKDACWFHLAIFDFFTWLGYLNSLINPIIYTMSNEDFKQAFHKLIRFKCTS
T1 sequence (P28221 whole entry): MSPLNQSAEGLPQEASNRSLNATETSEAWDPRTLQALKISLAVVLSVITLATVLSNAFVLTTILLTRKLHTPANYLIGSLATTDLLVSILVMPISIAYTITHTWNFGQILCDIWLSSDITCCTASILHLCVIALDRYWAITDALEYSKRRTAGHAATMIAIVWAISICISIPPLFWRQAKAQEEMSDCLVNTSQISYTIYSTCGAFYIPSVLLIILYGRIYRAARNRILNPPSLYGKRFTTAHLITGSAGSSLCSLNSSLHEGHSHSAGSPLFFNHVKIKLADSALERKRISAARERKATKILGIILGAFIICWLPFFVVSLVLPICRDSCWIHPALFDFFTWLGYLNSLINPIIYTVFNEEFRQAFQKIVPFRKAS

For the compound `CN(C)CCc1c[nH]c2ccc(C3(O)CCN4CCCC4C3)cc12` (single isomer, unassigned) [Example 6c, 5-[(7-R or S)(8a-R,S)-7-Hydroxyoctahydroindolizin-7-yl]-3-[2-(N,N-dimethylamino)ethyl]indole], in assay [1], the inhibition at 0.1 µM was over 90%.

On to `CN1CCC[C@H]1Cc1c[nH]c2ccc(C3CCN4CCCC4C3)cc12` (single isomer, unassigned) [Example 8a, 5-[(7R or 7S)(8a-R,S)-Octahydroindolizin-7-yl]-3-{[(2S)-N-methylpyrrolidin-2-yl]methyl}-1 H-indole], for which the “binding at the 5-HT1B receptor (in words)” value in assay [2] is listed as “little, if any, binding”. Moreover, the “binding at the 5-HT1D receptor (in words)” value in assay [1] is on record as “little, if any, binding”.

Take `CN1CCC[C@H]1Cc1c[nH]c2ccc(C3CCN4CCCC4C3)cc12` (single isomer, unassigned) [Example 8b, 5-[(7R or 7S)(8a-R,S)-Octahydroindolizin-7-yl] 3-{[(2S)-N-methylpyrrolidin-2-yl]methyl}-1 H-indole]: in assay [2], the “binding at the 5-HT1B receptor (in words)” value was “little, if any, binding”. Further, the “binding at the 5-HT1D receptor (in words)” value in assay [1] is “little, if any, binding”.

For the compound `CN1CCC[C@H]1Cc1c[nH]c2ccc(C3(O)CCN4CCCC4C3)cc12` (stereo partly drawn) [Example 6a, 5-[(7-R,S)(8a-R,S)-7-Hydroxyoctahydroindolizin-7-yI]-3-{[(2S)-N-methylpyrrolidin-2-yl]methyl}-1 H-indole], in assay [2], the “binding at the 5-HT1B receptor (in words)” value is “little, if any, binding”. Moreover, the “binding at the 5-HT1D receptor (in words)” value in assay [1] is “little, if any, binding”.

As for `CN1CCC[C@@H]1Cc1c[nH]c2ccc(C3(O)CCN4CCCC4C3)cc12` (stereo partly drawn) [Example 6b, 5-[(7-R,S)(8a-R,S)-7-Hydroxyoctahydroindolizin-7-yl]-3-{[(2R)-N-methylpyrrolidin-2-yl]methyl}-1H-indole], the inhibition at 0.1 µM in assay [2] is under 30%.

Regarding `CN1CCC[C@H]1Cc1c[nH]c2ccc(C3=CC4CCCN4CC3)cc12` (stereo partly drawn) [Example 7a, 5-[(8a-R,S)-1,2,3,5,6,8a-Hexahydroindolizin-7-yl]-3-{[(2S)-N-methylpyrrolidin-2-yl]methyl}-1 H-indole], in assay [2], the “binding at the 5-HT1B receptor (in words)” value is “little, if any, binding”. For the same compound, the “binding at the 5-HT1D receptor (in words)” value in assay [1] was “little, if any, binding”.

For the compound `CN1CCC[C@H]1Cc1c[nH]c2ccc(C3=CCN4CCCC4C3)cc12` (stereo partly drawn) [Example 7b, 5-[(8a-R,S)-1,2,3,5,8,8a-Hexahydroindolizin-7-yl]-3-{[(2S)-N-methylpyrrolidin-2-yl]methyl}-1 H-indole], the “binding at the 5-HT1B receptor (in words)” value in assay [2] is reported as “little, if any, binding”. Besides, the “binding at the 5-HT1D receptor (in words)” value in assay [1] was “little, if any, binding”.

With `CN1CCC[C@@H]1Cc1c[nH]c2ccc(C3=CCN4CCCC4C3)cc12` (stereo partly drawn) [Example 7d, 5-[(8a-R,S)-1,2,3,5,8,8a-Hexahydroindolizin-7-yl]-3-{[(2R)-N-methylpyrrolidin-2-yl]methyl}-1H-indole], the inhibition at 0.1 µM in assay [1] was over 90%.

As for `CN1CCC[C@@H]1Cc1c[nH]c2ccc(C3CCN4CCCC4C3)cc12` (stereo partly drawn) [Example 8c, 5-[(7-R,S)(8a-R,S)-Octahydroindolizin-7-yl]- -{[(2R)-N-methylpyrrolidin-2-yl]methyl}-1H-indole], the inhibition at 0.1 µM in assay [2] was under 30%.

The values are drawn from US6329390A, “5-Bicycloindole compounds” (NPS Allelix Corp., priority 1998, dated 2001).
